Counter-ions that a name gives are not always drawn.
Key:
RON kinase = target: T1, RON kinase (Homo sapiens, UniProt Q04912); assay: RON kinase enzyme inhibitory activity, FRET (TR-FRET) technique; type: biochemical; conditions: 60 min reaction
T1 construct: purchased Carna Bioscience
Description: The enzyme inhibitory activity (IC50) of the thienopyridine derivative was measured using FRET (fluorescence resonance energy transfer) technique. RON kinase (Carna Bioscience) was diluted with a kinase assay buffer (50 mM HEPES pH 7.5, 1 mM EGTA, 10 mM MgCl2, 2 mM DTT, and 0.01% Tween-20) to a concentration of 2× (0.4 nM) the final reaction concentration and the dilution was added to a 384-well plate at 5 μL/well. As sample compounds, the compounds synthesized in the examples of the present invention and the compounds of the comparative examples were used. The sample compounds were respectively dissolved in 100% DMSO to obtain 1 mM stock solutions, which were then subjected to eight 10-fold serial dilutions. The sample compounds were diluted with the kinase assay buffer to a concentration of 4× the final reaction concentration, and the dilutions were added to the 384-well plate at 2.5 μL/well. The plate was incubated at room temperature for 15 minutes. Next, 0.25 M ATP solution (Sigma Aldrich) was diluted with the kinase reaction buffer to a concentration of 4× (60 μM) the final reaction concentration, and a tyrosine peptide substrate (Perkin-Elmer) was diluted therein to a concentration of 4× (400 nM) the final reaction concentration. The dilution was added to the 384-well plate at 2.5 μL/well. Then, the 384-well plate was incubated at room temperature and the reaction was allowed to proceed for 60 minutes. After 60 minutes, EDTA (Sigma Aldrich) was diluted with TR-FRET detection buffer (Perkin-Elmer) to a concentration of 4× (40 mM) the final reaction concentration. A europium-labeled anti-phosphotyrosine antibody (Perkin-Elmer) was diluted in the above EDTA dilution to a concentration of 4× (8 nM) the final reaction concentration to prepare a stop solution of the RON kinase reaction. The stop solution was added to the 384-well plate at 10 μL/well to terminate the reaction, and the plate was incubated at room temperature for 60 minutes. Thereafter, the plate was read on Victor X5 plate reader (Perkin-Elmer). At this time, the excitation wavelength was 340 nm and the emission wavelengths were 620 nm and 665 nm. The IC50 values of the sample compounds were determined using GraphPad Prism™ 5 by expressing the emission energy at 665 nm as a function of the sample compound concentration.

[1] = test system: RON-mutated (Δ160) HT-29 colon cancer cell line; assay: Cell killing efficacy, trypan blue exclusion assay, HT-29; type: cell-based; conditions: HT29 cell, 48 hours
Description: (§1) Two colon cancer cell lines, RON-activated KM12C (80015, KCLB, MEM+10% FBS) and RON-mutated (Δ160) HT-29 (30038, KCLB, RPMI+10% FBS) were prepared in 6-well plates at 5×10^4 cells/well, respectively. After 24 hours, while freshly changing the medium, the sample compounds were added to the wells at a concentration of 1 μM or 5 μM and the plates were allowed to stand for 48 hours.
(§2) As the sample compounds, the compounds synthesized in the examples of the present invention and the compounds of the comparative examples were used.
(§3) After 48 hours, the cell suspensions were collected and centrifuged (1,500 rpm, 4 min.) to obtain the cells, and live cells and dead cells were quantitated (n=2) through a trypan blue (15250-061, Gibco) exclusion assay. The statistical analysis was performed using Excel™ T-test from Microsoft.
(§4) The cell death rates of the compounds of Examples and Comparative Examples were respectively measured and the results are shown in Table 4 as relative ratios to Comparative Example 1.

[2] = test system: RON-activated KM12C colon cancer cell line; assay: Cell killing efficacy, trypan blue exclusion assay, KM12C; type: cell-based; conditions: 48 hours
Description: as §1, §2, §3, §4

T1 sequence (Q04912 25-1400): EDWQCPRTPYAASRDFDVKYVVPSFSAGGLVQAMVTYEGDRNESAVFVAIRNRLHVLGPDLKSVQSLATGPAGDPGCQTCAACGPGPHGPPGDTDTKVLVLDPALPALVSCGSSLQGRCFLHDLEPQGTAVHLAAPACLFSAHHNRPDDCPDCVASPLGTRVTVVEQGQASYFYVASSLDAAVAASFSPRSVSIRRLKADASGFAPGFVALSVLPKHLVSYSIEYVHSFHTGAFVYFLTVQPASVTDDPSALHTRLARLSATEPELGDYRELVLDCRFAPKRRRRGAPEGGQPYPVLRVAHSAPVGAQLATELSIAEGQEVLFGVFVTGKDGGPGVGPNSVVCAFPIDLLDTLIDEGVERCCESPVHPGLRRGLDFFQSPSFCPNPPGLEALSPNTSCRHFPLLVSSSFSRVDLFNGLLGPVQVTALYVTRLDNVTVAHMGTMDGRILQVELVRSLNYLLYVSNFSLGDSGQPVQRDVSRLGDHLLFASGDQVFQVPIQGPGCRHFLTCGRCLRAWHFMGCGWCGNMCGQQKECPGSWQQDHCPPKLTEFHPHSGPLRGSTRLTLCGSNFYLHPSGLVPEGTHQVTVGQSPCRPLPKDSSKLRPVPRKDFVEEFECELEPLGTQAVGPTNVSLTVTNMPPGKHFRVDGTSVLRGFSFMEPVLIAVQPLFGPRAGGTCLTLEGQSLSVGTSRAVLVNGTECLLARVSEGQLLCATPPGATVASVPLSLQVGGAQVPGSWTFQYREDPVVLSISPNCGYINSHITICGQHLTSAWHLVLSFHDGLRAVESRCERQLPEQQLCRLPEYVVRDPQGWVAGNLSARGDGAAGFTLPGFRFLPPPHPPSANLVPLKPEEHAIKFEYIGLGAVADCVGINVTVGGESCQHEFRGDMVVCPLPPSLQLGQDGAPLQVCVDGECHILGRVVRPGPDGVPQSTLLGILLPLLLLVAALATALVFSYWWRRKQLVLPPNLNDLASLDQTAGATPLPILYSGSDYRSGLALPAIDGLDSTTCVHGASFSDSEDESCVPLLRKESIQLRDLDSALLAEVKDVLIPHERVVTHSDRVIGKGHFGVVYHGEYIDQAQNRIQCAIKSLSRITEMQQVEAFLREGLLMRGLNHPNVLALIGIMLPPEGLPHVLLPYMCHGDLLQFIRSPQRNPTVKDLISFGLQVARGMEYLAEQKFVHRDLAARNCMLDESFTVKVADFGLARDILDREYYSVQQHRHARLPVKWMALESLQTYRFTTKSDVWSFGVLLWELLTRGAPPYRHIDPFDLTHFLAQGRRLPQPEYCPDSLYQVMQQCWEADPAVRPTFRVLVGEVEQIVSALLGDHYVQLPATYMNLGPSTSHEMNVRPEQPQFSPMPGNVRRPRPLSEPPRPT

Row | Compound | IC50 (RON kinase) | other results
1 | COCCNCc1ccc(-c2cc3nccc(Oc4ccc(NC(=O)c5cccn(-c6ccccc6)c5=O)cc4F)c3s2)nc1 [Example 5, N-(3-fluoro-4-{[2-(5-{[(2-methoxyethyl)amino]methyl}pyridin-2-yl)thieno[3,2-b]pyridin-7-yl]oxy}phenyl)-2-oxo-1-phenyl-1,2-dihydropyridine-3-carboxamide Hydrochloride] | 1.15 nM | –
2 | COCCNCc1ccc(-c2cc3nccc(Oc4ccc(NC(=O)c5c(OC)ccn(-c6ccc(F)cc6)c5=O)c(Cl)c4)c3s2)nc1 [Example 10, N-(2-chlor-4-{[-2-(5-{[(2-methoxyethyl)amino]methyl}pyridin-2-yl)thieno[3,2-b]pyridin-7-yl]oxy}phenyl)-1-(4-fluorophenyl)-4-methoxy-2-oxo-1,2-dihydropyridine-3-carboxamide Hydrochloride] | 5.66 nM | –
3 | COCCNCc1ccc(-c2cc3nccc(Oc4ccc(NC(=O)c5c(C)cnn(-c6ccc(F)cc6)c5=O)cc4F)c3s2)nc1 [Example 17, N-(3-fluoro-4-{[2-(5-{[(2-methoxyethyl)amino]methyl}pyridin-2-yl)thieno[3,2-b]pyridin-7-yl]oxy}phenyl)-2-(4-fluorophenyl)-5-methyl-3-oxo-2,3-dihydropyridazine-4-carboxamide Hydrochloride] | 1.59 nM | –
4 | COCCNCc1ccc(-c2cc3nccc(Oc4ccc(NC(=O)c5ccnn(-c6ccccc6)c5=O)cc4F)c3s2)nc1 [Example 19, N-(3-fluoro-4-{[2-(5-{[(2-methoxyethyl)amino]methyl}pyridin-2-yl)thieno[3,2-b]pyridin-7-yl]oxy}phenyl)-3-oxo-2-phenyl-2,3-dihydropyridazine-4-carboxamide Hydrochloride] | 3.66 nM | –
5 | COCCNCc1ccc(-c2cc3nccc(Oc4ccc(NC(=O)c5cc(Br)cn(-c6ccc(F)cc6)c5=O)cc4F)c3s2)nc1 [Example 23, 5-bromo-N-(3-fluoro-4-{[2-(5-1 [(2-methoxyethyl)amino]methyl}pyridin-2-yl)thieno[3,2-b]pyridin-7-yl]oxy}phenyl)-1-(4-fluorophenyl)-2-oxo-1,2-dihydropyridine-3-carboxamide Hydrochloride] | 8.05 nM | –
6 | COCCNCc1ccc(-c2cc3nccc(Oc4ccc(NC(=O)c5cc(C)c(C)n(-c6ccc(F)cc6)c5=O)cc4F)c3s2)nc1 [Example 27, N-(3-fluoro-4-([2-(5-{[(2-methoxyethyl)amino)methyl]pyridin-2-yl}thieno[3,2-b]pyridin-7-yl)oxy]phenyl}-1-(4-fluorophenyl)-5,6-dimethyl-2-oxo-1,2-dihydropyridine-3-carboxamide Hydrochloride] | 1.93 nM | –
7 | CCOc1ccn(-c2ccccc2)c(=O)c1C(=O)Nc1ccc(Oc2ccnc3cc(-c4ccc(CN5CCN(C)CC5)cn4)sc23)c(F)c1.Cl [Example 34] | – | Cell death rate (Relative to Comp. Ex. 1) ([1]; 1 μM): x 2.12; Cell death rate (Relative to Comp. Ex. 1) ([1]; 5 μM): x 1.66; Cell death rate (Relative to Comp. Ex. 1) ([2]; 1 μM): x 2.07; Cell death rate (Relative to Comp. Ex. 1) ([2]; 5 μM): x 1.11
8 | CCOc1ccn(-c2ccc(F)cc2)c(=O)c1C(=O)Nc1ccc(Oc2ccnc3cc(-c4ccc(CN5CCOCC5)cn4)sc23)cc1Cl [Example 37, N-[2-chloro-4-({2-[5-(morpholinomethyl)pyridin-2-yl]thieno[3,2-b]pyridin-7-yl}oxy)phenyl]-4-ethoxy-1-(4-fluorophenyl)-2-oxo-1,2-dihydropyridine-3-carboxamide Hydrochloride] | 10.3 nM | –

More lines, main results first:

Row | IC50 (RON kinase) | Compound | other results
9 | 21.9 nM | CCOc1ccn(-c2ccc(F)cc2)c(=O)c1C(=O)Nc1ccc(Oc2ccnc3cc(-c4ccc(CN(CCOC)C(=O)OC(C)(C)C)cn4)sc23)c(F)c1 [Example 6, t-butyl {[6-(7-{4-[4-ethoxy-1-(4-fluorophenyl)-2-oxo-1,2-dihydropyridine-3-carboxamido]-2-fluorophenoxy}thieno[3,2-b]pyridin-2-yl)pyridin-3-yl]methyl}(2-methoxyethyl)carbamate] | –
10 | 2.1 nM | CCOc1ccn(-c2ccc(C(F)(F)F)cc2)c(=O)c1C(=O)Nc1ccc(Oc2ccnc3cc(-c4ccc(CNCCOC)cn4)sc23)c(F)c1 [Example 12, 4-ethoxy-N-(3-fluoro-4-{[2-(5-{[(2-methoxyethyl)amino]methyl}pyridin-2-yl)thieno[3,2-b]pyridin-7-yl]oxy}phenyl)-2-oxo-1-(4-(trifluoromethyl)phenyl)-1,2-dihydropyridine-3-carboxamide Hydrochloride] | –
11 | 1.14 nM | COCCNCc1ccc(-c2cc3nccc(Oc4ccc(NC(=O)c5c(OC)ccn(-c6ccc(Cl)cc6)c5=O)cc4F)c3s2)nc1 [Example 13, 1-(4-chlorophenyl)-N-(3-fluoro-4-{[2-(5-{[(2-methoxyethyl)amino]methyl}pyridin-2-yl)thieno[3,2-b]pyridin-7-yl]oxy}phenyl)-4-methoxy-2-oxo-1,2-dihydropyridine-3-carboxamide Hydrochloride] | –
12 | 2.93 nM | CCOc1ccn(-c2ccc(OC)cc2)c(=O)c1C(=O)Nc1ccc(Oc2ccnc3cc(-c4ccc(CNCCOC)cn4)sc23)c(F)c1 [Example 15, 4-ethoxy-N-(3-fluoro-4-{[2-(5-{[(2-methoxyethyl)amino]methyl}pyridin-2-yl)thieno[3,2-b]pyridin-7-yl]oxy}phenyl)-1-(4-methoxyphenyl)-2-oxo-1,2-dihydropyridine-3-carboxamide Hydrochloride] | –
13 | 3.43 nM | CCOc1ccn(-c2cccc(OC)c2)c(=O)c1C(=O)Nc1ccc(Oc2ccnc3cc(-c4ccc(CNCCOC)cn4)sc23)c(F)c1 [Example 16, 4-ethoxy-N-(3-fluoro-4-{[2-(5-{[(2-methoxyethyl)amino]methyl}pyridin-2-yl)thieno[3,2-b]pyridin-7-yl]oxy}phenyl)-1-(3-methoxyphenyl)-2-oxo-1,2-dihydropyridine-3-carboxamide Hydrochloride] | –
14 | 24.2 nM | COCCNCc1ccc(-c2cc3nccc(Oc4ccc(NC(=O)c5cc(Cl)cn(-c6ccc(F)cc6)c5=O)cc4F)c3s2)nc1 [Example 24, 5-chloro-N-(3-fluoro-4-{[2-(5-{[(2-methoxyethyl)amino]methyl}pyridin-2-yl)thieno[3,2-b]pyridin-7-yl]oxy}phenyl)-1-(4-fluorophenyl)-2-oxo-1,2-dihydropyridine-3-carboxamide Hydrochloride] | –
15 | 3.7 nM | CCOc1ccn(-c2ccc(F)cc2)c(=O)c1C(=O)Nc1ccc(Oc2ccnc3cc(-c4ccc(CNCCOC)cn4)sc23)cc1Cl [Example 26, N-(2-chloro-4-{[2-(5-{[(2-methoxyethyl)amino]methyl}pyridin-2-yl)thieno[3,2-b]pyridin-7-yl]oxy}phenyl)-4-ethoxy-1-(4-fluorophenyl)-2-oxo-1,2-dihydropyridine-3-carboxamide Hydrochloride] | –
16 | 1.21 nM | COCCNCc1ccc(-c2cc3nccc(Oc4ccc(NC(=O)c5cc(C)cn(-c6ccc(F)cc6)c5=O)cc4F)c3s2)nc1 [Example 29, N-(3-fluoro-4-{[-2-(5-{[(2-methoxyethyl)amino]methyl}pyridin-2-yl)thieno[3,2-b]pyridin-7-yl]oxy}phenyl)-1-(4-fluorophenyl)-5-methyl-2-oxo-1,2-dihydropyridine-3-carboxamide Hydrochloride] | –
17 | 2.55 nM | CCOc1ccn(-c2ccc(Cl)cc2)c(=O)c1C(=O)Nc1ccc(Oc2ccnc3cc(-c4ccc(CN5CCOCC5)cn4)sc23)c(F)c1 [Example 35, 1-(4-chlorophenyl)-4-ethoxy-N-[3-fluoro-4-({2-[5-(morpholinomethyl)pyridin-2-yl]thieno[3,2-b]pyridin-7-yl}oxy)phenyl]-2-oxo-1,2-dihydropyridine-3-carboxamide Hydrochloride] | –
18 | 2.28 nM | CCOc1ccn(-c2ccc(F)cc2)c(=O)c1C(=O)Nc1ccc(Oc2ccnc3cc(-c4ccc(CN5CCOCC5)cn4)sc23)c(Cl)c1 [Example 36, N-[3-chloro-4-({2-[5-(morpholinomethyl)pyridin-2-yl]thieno[3,2-b]pyridin-7-yl}oxy)phenyl]-4-ethoxy-1-(4-fluorophenyl)-2-oxo-1,2-dihydropyridine-3-carboxamide Hydrochloride] | –
